The values that follow come from patent US20120115782A1, “COMPOSITIONS AND METHODS FOR TREATING OR INHIBITING LIVER INJURY” (Yale University, priority 2009, published 2012).

Experiment [1] relates to APAP induced hepatotoxicity in wild-type mice. Kind of experiment: Acetaminophen (APAP) induced hepatotoxicity in mice: survival, serum ALT, liver histology. Format: in vivo, mouse (C57BL/6). As to the method: Animals. C57BL/6 mice were purchased from commercial sources. NALP3 −/−, IL-18 −/− ASC −/−, IPAF −/− and TLR9 −/− mice were backcrossed nine generations onto the C57BL/6 background. Caspase 1 −/− mice were backcrossed 5-6 generations onto the C57BL/6 background. These mice have been described previously (39, 40). IL-1β was neutralized in by using the anti-IL-1β antibody from clone B122 (a gift of R. Schreiber, Washington University) at a dose of 0.2 mg/mouse iv twice a day for a total of 48 hours after giving APAP. Control mice received Armenian hamster isotype control antibody. For survival experiments animals were euthanized when they became moribund using criteria of lack of response to stimuli or lack of righting reflex. Animal protocols were approved by the Yale University animal care and use committee. [include references for IPAF−/− (M. Lara-Tejero et al. JEM 2006) and IL-18−/−. Need to add TLR9−/− and TLR3−/−] Acetaminophen induced hepatotoxicity. APAP (Sigma, Mo.) solution was made fresh for each experiment in PBS at 20 mg/ml and heated in a water bath to 55° C. to dissolve. APAP was dosed at 500 mg/kg and injected I.P after 15 hrs of starvation. Animals were euthanized by ketamine/xylazine injection at 12 hours for collection of serum, isolation of liver lymphocytes or collection of liver tissue for histology, or they were observed every four hours for 72 hours until they reached criteria for euthanasia (lack of response to stimuli or lack of righting reflex).
Aspirin/clopidogrel/SC-560. Aspirin (Sigma, Mo.) was made fresh for each experiment. For dosing prior to APAP it was dissolved in single deionized water at 60 mg/l and heated to 42° C. with rapid stirring to dissolve, then rapidly placed in an ice water bath to cool. Aspirin in water was given to the mice 60-72 hours prior to APAP injection. Assuming water consumption of 3-5 ml per day this dose would be equivalent to a 300-500 mg dose in an 80 kg adult human. For co-administration of APAP and aspirin, aspirin was gavaged at a dose of 6 mg/kg in a volume of 100 ul of water immediately after ip injection of APAP. Clopidogrel (Gilead Pharmaceuticals, CA.) was dissolved in PBS at 6 mg/ml and administered by gavage of 100 ul, 30 mg/kg, every 24 hours beginning 48 hours prior and ending 24 hours after APAP injection. Cox-1 inhibitor (SC-560). SC-560 (Cayman chemical, MI) was dissolved at 50 mg/ml in DMSO and further dissolved in PBS in order to gavage a dose of 5 mg/kg in 100 ul. It was administered twice per day beginning 60 hours prior to Tylenol and continued for 48 hours after APAP injection as previously established (41).
Uric Acid Peritonitis. Peritonitis was induced with uric acid crystals as previously described by injecting 3 mg of MSU intraperitoneally per mouse (27). Three hours after injection peritoneal lavage was performed on mice euthanized by isoflurane inhalation. Neutrophil infiltration was evaluated by flow cytometry. The percent of Gr-1 (BD Pharmingen, CA) positive cells was multiplied by the total cell counts. Liver sinusoidal endothelial cell (LSEC) isolation. After in-situ pronase digestion the non-parenchymal cell suspension is centrifuged for 5 min at 100 g to remove most of the parenchymal cells. This process is repeated until no pellet is observed. The supernatant enriched in LSEC is centrifuged for 10 min at 350 g. The pellet is resuspended in PBS and centrifuged for 10 min at 350 g. The cells are resuspended in. PBS and layered (3.3 ml) on the top of two-step percoll gradient (put the 5 ml of 50% percoll at the bottom and put the 6.6 ml of 25% percoll at the top). The gradients are centrifuged at 900 g for 20 min and the intermediate layer included LSEC is collected and cultured in the media (EGM™-2MV—Microvascular Endothelial Cell Medium-2, CAMBREX, Charles City, Iowa). ODN2088 and IRS 954 injection.

A further experiment has as its system pro-IL-18 transcript. Kind of experiment: Q-PCR of whole liver 12 hours after APAP: pro-IL-18. Format: in vivo, mouse. The conditions noted are these: aspirin pre-treatment in drinking water. As to the method:
(§1) Uric Acid Peritonitis. Peritonitis was induced with uric acid crystals as previously described by injecting 3 mg of MSU intraperitoneally per mouse (27). Three hours after injection peritoneal lavage was performed on mice euthanized by isoflurane inhalation. Neutrophil infiltration was evaluated by flow cytometry. The percent of Gr-1 (BD Pharmingen, CA) positive cells was multiplied by the total cell counts. Liver sinusoidal endothelial cell (LSEC) isolation. After in-situ pronase digestion the non-parenchymal cell suspension is centrifuged for 5 min at 100 g to remove most of the parenchymal cells. This process is repeated until no pellet is observed. […] TLR9 antagonist (ODN2088, 50 microg×2) or PBS, were injected ip into wild-type mice immediately after and at 6 hours after APAP injection and total mouse liver was obtained 12 hours after APAP injection for quantitative Q-PCR for IL-1β. […] Quantitative Real-time PCR. […] Expression of glyceraldehyde 3-phosphate dehydrogenase was used to standardize the samples, and the results were expressed as a ratio compared with untreated HSCs. Quantitative Real-time PCR for mRNA expression of IL-18, IL-1β, TNF-α and IFN-γ. […] Quantitative real-time PCR (Q-PCR) was performed for IL-18 and IL-1β using commercial primer-probe sets (Applied Biosystems, CA) and the Applied Biosystem 7500 real time PCR system. […]

The test system of experiment [2] is THP1 cells (pro-IL-1β transcript). Kind of experiment: THP1 cells stimulated with LPS, real-time PCR for pro-IL-1β. Conditions: overnight with aspirin (1.5 mM, 0.15 mM), then LPS 10 μg/ml for 8 hours. The format is cell-based, human. As to the method: as §1
(In general: Real-time PCR tracks product formation cycle by cycle.)

A further experiment deals with IFN-γ. The experiment in a line: Q-PCR of whole liver after APAP: IFN-γ. The format is in vivo, mouse. Conditions: aspirin treatment. On the procedure: as §1
The next experiment deals with IL-1β. The experiment in a line: ELISA for serum IL-1β after APAP. The conditions noted are these: ASA in drinking water. Format: in vivo, mouse. (In general: An ELISA detects its analyte on a solid surface through an enzyme-linked reagent.)
Another experiment relates to pro-IL-1β transcript. The experiment in a line: Q-PCR of whole liver 12 hours after APAP: pro-IL-1β. The conditions noted are these: aspirin pre-treatment in drinking water. Format: in vivo, mouse. On the procedure: as §1
A further experiment concerns NALP3 inflammasome. Kind of experiment: Uric acid (MSU crystal) peritonitis, model of NALP3 inflammasome activation. Format: in vivo. Conditions: low dose aspirin (60 mg/l) in drinking water three days prior; lavage 3 hours after MSU 3 mg/mouse ip. On the procedure: as §1
The test system of a further experiment is TNF-α. Kind of experiment: Q-PCR of whole liver after APAP: TNF-α. The format is in vivo, mouse. The conditions noted are these: aspirin treatment. On the procedure:
as §1

In experiment [3] the test system is APAP toxicity in mice and rats. Conditions: aspirin 200-600 mg/kg; cited from earlier work.

With `COc1ccc(-n2nc(C(F)(F)F)cc2-c2ccc(Cl)cc2)cc1` [SC-560], the “protection against APAP toxicity (survival)” value in experiment [1] (SC-560 gavage 5 mg/kg twice daily, from 60 hours prior to 48 hours after APAP) is listed as “did not protect”.
Take `CC(=O)Oc1ccccc1C(=O)O` [aspirin, acetylsalicylic acid]: the “increase in pro-IL-18 message by APAP, whole liver” value with pro-IL-18 transcript was “reduced to normal levels”. In addition, the “up-regulation of pro-IL-1β transcript by LPS in THP1 cells” value in [2] is on record as “reduced”. The “expression of IFN-γ, whole liver after APAP” value with IFN-γ is reported as “reduced”. In [1] (aspirin 60 mg/l in drinking water for 3 days before APAP 500 mg/kg ip, 72 hours), the “survival after APAP” value was “markedly improved survival”. Further, the “survival, aspirin given concordantly with APAP” value in experiment [1] (aspirin gavaged 6 mg/kg immediately after ip APAP) is reported as 43%+/−11%. For the same molecule, the “liver histology (H&E) 12 hours after APAP” value in experiment [1] (aspirin in drinking water three days prior to APAP) was “significant reduction in APAP induced liver injury and hemorrhage”. In addition, the “serum ALT 12 hrs after APAP” value in experiment [1] (pre-treatment with aspirin in drinking water) is listed as “significantly lower serum ALT”. Besides, the “serum IL-1β levels induced by APAP” value in the experiment on IL-1β is “significant reduction”. Besides, the “increase in pro-IL-1β message by APAP, whole liver” value in the experiment with pro-IL-1β transcript is “reduced to normal levels”. Also, the “neutrophil exudates (Gr-1 positive) in MSU peritonitis” value in the experiment with NALP3 inflammasome is “eightfold reduction”. In the experiment on TNF-α, the “expression of TNF-α, whole liver after APAP” value is “reduced”. Besides, in experiment [3], the “liver injury from APAP” value is listed as “reduce liver injury” and the “survival from APAP” value is recorded as “not improve survival”.
As to `COC(=O)[C@H](c1ccccc1Cl)N1CCc2sccc2C1` [clopidogrel], in [1] (clopidogrel gavage 30 mg/kg every 24 hrs, from 48 hours prior to 24 hours after APAP), the “protection against APAP toxicity (survival)” value is reported as “did not protect”.
